# Test system: MMP-13
# Test: RT-PCR of MMP-13 mRNA in human chondrocyte culture
# Assay type: cell-based
# Conditions: 24 hours incubation; data not shown
# Source text: Isolated normal human chondrocytes were used for chondrocyte cultures, detection of integrin expression by FACScan, and cell attachment assays. The dissected normal human cartilage obtained at autopsy was cut into small cubes 2-4 mm in size. Chondrocytes were isolated as previously described (34), with some modifications. Briefly, the cubes were washed three times with medium (A). Thereafter, the diced cartilage was digested with 0.1% (wt/vol) trypsin (Sigma) and 0.02% (wt/vol) EDTA (Sigma) for 60 minutes (25 ml/10 g wet weight tissue) at 37° C. After washing the cartilage with Medium A containing 10% heat-inactivated fetal calf serum (FCS) to inhibit the trypsin, the digestion was continued in the same medium with serum (50 ml/10 g wet weight tissue) containing 0.2% (wt/vol) collagenase (type IA; Sigma) for 16 h at 37° C. with gentle agitation on a gyrotary shaker. Undigested cartilage was removed by filtration through a layer of nylon mesh (Cell Strainer; Becton Dickinson Labware, NJ). […]
# Total RNA was isolated from chondrocytes or cartilage explants by the guanidine isothiocyanate procedure according to Chomczynski and Sacchi (Chomczynski, P. et al., Anal. Biochem. 162:156-9 (1987)) with some modifications. […] The total RNA pellet was resuspended in diethyl pyrocarbonate-treated (DEPC) water and the amount of total RNA was measured by reading optical density at 260 nm. […]
sequence,measurement,value
ERGPPGPQGARGFPGTPGLPGVK [CB12-II],MMP-13 gene expression (mRNA by RT-PCR),weakly upregulated

# — patent publication US20040122209A1, “Products for regulating the degradation of collagen and methods for identifying same” (Shriners Hospital For Children, priority 2002, published 2004)
